# Experimental data: patent US20160175306A1, “COMBINATION OF A IMIDAZOPYRIDAZINE DERIVATIVE AND A MITOTIC AGENT FOR THE TREATMENT OF CANCER” (BAYER PHARMA AKTIENGESELLSCHAFT, priority 2013, published 2016)
# System: rat hepatocytes
# Test: In vitro metabolic stability in rat hepatocytes
# Assay type: in vitro ADME
# Details: 1 μM test compound, calculated from half-life
# Method: Investigation of In Vitro Metabolic Stability in Rat Hepatocytes (Including Calculation of Hepatic In Vivo Blood Clearance (CL))
# Hepatocytes from Han Wistar rats were isolated via a 2-step perfusion method. After perfusion, the liver was carefully removed from the rat: the liver capsule was opened and the hepatocytes were gently shaken out into a Petri dish with ice-cold WME. The resulting cell suspension was filtered through sterile gaze in 50 ml falcon tubes and centrifuged at 50×g for 3 min at room temperature.
# The cell pellet was resuspended in 30 ml WME and centrifuged through a Percoll® gradient for 2 times at 100×g. The hepatocytes were washed again with Williams' medium E (WME) and resuspended in medium containing 5% FCS. Cell viability was determined by trypan blue exclusion.
# For the metabolic stability assay liver cells were distributed in WME containing 5% FCS to glass vials at a density of 1.0×10^6 vital cells/m. The test compound was added to a final concentration of 1 μM. During incubation, the hepatocyte suspensions were continuously shaken and aliquots were taken at 2, 8, 16, 30, 45 and 90 min, to which equal volumes of cold methanol were immediately added. Samples were frozen at −20° C. over night, after subsequently centrifuged for 15 minutes at 3000 rpm and the supernatant was analyzed with an Agilent 1200 HPLC-system with LCMS/MS detection.
# The half-life of a test compound was determined from the concentration-time plot. From the half-life the intrinsic clearances were calculated. Together with the additional parameters liver blood flow, amount of liver cells in vivo and in vitro. The hepatic in vivo blood clearance (CL) and the maximal oral bioavailability (Fmax) was calculated. The following parameter values were used: Liver blood flow—4.2 L/h/kg rat; specific liver weight—32 g/kg rat body weight; liver cells in vivo—1.1×10^8 cells/g liver, liver cells in vitro—0.5×10^6/ml.
row,Structure (SMILES),Fmax (maximal oral bioavailability)
1,"Cc1cc(-c2cnc3c(NCCC(F)(F)F)cc(C4(c5cc(F)ccc5O)CC4)nn23)ccc1C(=O)NC1CC1 [Compound A23, N-cyclopropyl-4-{6-[1-(5-fluoro-2-hydroxyphenyl)cyclopropyl]-8-[(3,3,3-trifluoropropyl)amino]imidazo[1,2-b]pyridazin-3-yl}-2-methylbenzamide]",40%
2,"Cc1cc(-c2cnc3c(NCCC(F)(F)F)cc(Cc4cccc(F)c4O)nn23)ccc1C(=O)NC1CC1 [Comparative Example 2, N-Cyclopropyl-4-{6-(3-fluoro-2-hydroxybenzyl)-8-[(3,3,3-trifluoropropyl)amino]imidazo[1,2-b]pyridazin-3-yl}-2-methylbenzamide, reference compound]",3%
3,"C=C(c1ccc(OC)c(F)c1)c1cc(NCCC(F)(F)F)c2ncc(-c3ccc(C(=O)NC4CC4)c(C)c3)n2n1 [Compound A1, N-Cyclopropyl-4-{6-[1-(3-fluoro-4-methoxyphenyl)ethenyl]-8-[(3,3,3-trifluoropropyl)amino]imidazo[1,2-b]pyridazin-3-yl}-2-methylbenzamide]",39%
4,"COc1ccc(Cc2cc(NCCC(F)(F)F)c3ncc(-c4ccc(C(=O)NC5CC5)c(C)c4)n3n2)cc1F [Comparative Example 1, N-Cyclopropyl-4-{6-(3-fluoro-4-methoxybenzyl)-8-[(3,3,3-trifluoropropyl)amino]imidazo[1,2-b]pyridazin-3-yl}-2-methylbenzamide, reference compound]",29%
5,"COc1cccc(Cc2cc(NCCC(F)(F)F)c3ncc(-c4ccc(C(=O)NC5CC5)c(C)c4)n3n2)c1 [Comparative Example 4, N-cyclopropyl-4-{6-(3-methoxybenzyl)-8-[(3,3,3-trifluoropropyl)amino]imidazo[1,2-b]pyridazin-3-yl}-2-methylbenzamide, reference compound]",18%
6,"Cc1cc(-c2cnc3c(NCCC(F)(F)F)cc(Cc4cccc(F)c4)nn23)ccc1C(=O)NC1CC1 [Comparative Example 3, N-Cyclopropyl-4-{6-(3-fluorobenzyl)-8-[(3,3,3-trifluoropropyl)amino]imidazo[1,2-b]pyridazin-3-yl}-2-methylbenzamide, reference compound]",43%

# Now from value to compound:
row,Fmax (maximal oral bioavailability),Structure (SMILES)
1,56%,"COc1ccc(C(F)(F)c2cc(NCCC(F)(F)F)c3ncc(-c4ccc(C(=O)NC5CC5)c(C)c4)n3n2)cc1 [Compound A16, N-Cyclopropyl-4-{6-[difluoro(4-methoxyphenyl)methyl]-8-[(3,3,3-trifluoropropyl)amino]imidazo[1,2-b]pyridazin-3-yl}-2-methylbenzamide]"
2,50%,"Cc1cc(-c2cnc3c(NCCC(F)(F)F)cc(C4(c5cccc(F)c5F)CC4)nn23)ccc1C(=O)NC1CC1 [Compound A17, N-Cyclopropyl-4-{6-[1-(2,3-difluorophenyl)cyclopropyl]-8-[(3,3,3-trifluoropropyl)amino]imidazo[1,2-b]pyridazin-3-yl}-2-methylbenzamide]"
3,70%,"Cc1cc(-c2cnc3c(NCCC(F)(F)F)cc(C(F)(F)c4cccc(F)c4)nn23)ccc1C(=O)NC1CC1 [Compound A6, N-Cyclopropyl-4-{6-[difluoro(3-fluorophenyl)methyl]-8-[(3,3,3-trifluoropropyl)amino]imidazo[1,2-b]pyridazin-3-yl}-2-methylbenzamide]"
4,75%,"COc1ccc(C(=O)c2cc(NCCC(F)(F)F)c3ncc(-c4ccc(C(=O)NC5CC5)c(C)c4)n3n2)cc1F [Compound A13, N-Cyclopropyl-4-{6-(3-fluoro-4-methoxybenzoyl)-8-[(3,3,3-trifluoropropyl)amino]imidazo[1,2-b]pyridazin-3-yl}-2-methylbenzamide]"
